IC50 data for one compound are collected here from BindingDB's records for patent US20250223301 (Inventisbio Co., 2025).

Assay [1] addresses Diacylglycerol kinase alpha (Homo sapiens, UniProt P23743). Put plainly: DGK ADP-Glo Kinase Assay. The method, then:
(§1) Luminescence was recorded using an Tecan SPARK microplate reader.
(In general: In ADP-Glo the light output rises with the ADP produced.)

The target in assay [2] is Diacylglycerol kinase zeta (Homo sapiens, UniProt Q13574). Briefly: DGK ADP-Glo Kinase Assay. Here is the method:
as §1

Chain of Diacylglycerol kinase zeta (Q13574 as listed by the source): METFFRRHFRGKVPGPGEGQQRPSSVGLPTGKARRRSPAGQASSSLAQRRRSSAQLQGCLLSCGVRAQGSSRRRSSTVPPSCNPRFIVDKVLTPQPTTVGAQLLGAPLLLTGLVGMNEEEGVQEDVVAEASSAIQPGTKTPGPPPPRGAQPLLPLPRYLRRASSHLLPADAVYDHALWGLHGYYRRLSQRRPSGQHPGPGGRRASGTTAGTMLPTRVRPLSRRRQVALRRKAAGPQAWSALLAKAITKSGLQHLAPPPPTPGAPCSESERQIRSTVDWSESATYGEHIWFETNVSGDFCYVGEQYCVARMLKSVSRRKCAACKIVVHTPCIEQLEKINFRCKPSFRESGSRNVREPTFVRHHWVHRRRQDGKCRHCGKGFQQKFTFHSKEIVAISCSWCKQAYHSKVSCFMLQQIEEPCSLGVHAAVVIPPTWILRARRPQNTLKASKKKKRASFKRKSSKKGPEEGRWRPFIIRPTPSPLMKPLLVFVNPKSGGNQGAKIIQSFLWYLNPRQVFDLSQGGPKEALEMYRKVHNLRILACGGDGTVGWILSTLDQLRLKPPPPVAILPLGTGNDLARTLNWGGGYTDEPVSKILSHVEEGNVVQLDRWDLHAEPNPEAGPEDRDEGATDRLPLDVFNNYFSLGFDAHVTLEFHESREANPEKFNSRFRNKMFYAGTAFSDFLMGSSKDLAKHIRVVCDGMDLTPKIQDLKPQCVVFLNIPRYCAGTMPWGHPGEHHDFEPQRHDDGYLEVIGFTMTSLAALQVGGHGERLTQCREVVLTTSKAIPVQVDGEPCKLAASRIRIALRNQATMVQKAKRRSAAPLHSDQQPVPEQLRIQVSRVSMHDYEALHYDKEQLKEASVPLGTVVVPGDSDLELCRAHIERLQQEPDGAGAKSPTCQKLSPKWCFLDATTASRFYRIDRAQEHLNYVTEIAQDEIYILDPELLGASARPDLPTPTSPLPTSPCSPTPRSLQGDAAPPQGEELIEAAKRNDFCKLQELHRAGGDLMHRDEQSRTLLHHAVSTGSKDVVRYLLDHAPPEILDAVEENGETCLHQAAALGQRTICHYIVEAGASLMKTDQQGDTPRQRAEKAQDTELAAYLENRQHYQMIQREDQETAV
Chain of Diacylglycerol kinase alpha (P23743 whole entry): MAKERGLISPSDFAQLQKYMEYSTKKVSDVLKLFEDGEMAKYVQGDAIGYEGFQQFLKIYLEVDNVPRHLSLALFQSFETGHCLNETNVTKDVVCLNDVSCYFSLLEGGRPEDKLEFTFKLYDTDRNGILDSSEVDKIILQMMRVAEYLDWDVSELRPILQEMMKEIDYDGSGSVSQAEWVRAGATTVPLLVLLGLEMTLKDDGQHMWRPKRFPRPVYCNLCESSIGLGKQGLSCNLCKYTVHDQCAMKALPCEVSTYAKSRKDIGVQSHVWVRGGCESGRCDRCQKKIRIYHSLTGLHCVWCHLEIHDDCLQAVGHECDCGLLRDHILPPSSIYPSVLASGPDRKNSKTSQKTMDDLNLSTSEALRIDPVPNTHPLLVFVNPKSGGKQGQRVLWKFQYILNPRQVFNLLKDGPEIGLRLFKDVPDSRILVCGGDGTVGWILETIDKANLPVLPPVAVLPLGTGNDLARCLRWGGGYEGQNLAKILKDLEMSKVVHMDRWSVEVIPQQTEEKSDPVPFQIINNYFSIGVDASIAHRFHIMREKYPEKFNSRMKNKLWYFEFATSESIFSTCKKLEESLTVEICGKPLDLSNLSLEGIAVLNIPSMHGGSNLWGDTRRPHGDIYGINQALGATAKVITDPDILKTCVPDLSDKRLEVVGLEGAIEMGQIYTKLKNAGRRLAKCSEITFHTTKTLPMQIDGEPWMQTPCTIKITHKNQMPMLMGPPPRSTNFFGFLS

As a reminder, the IC50 is the concentration at which inhibition is half-maximal. Higher therefore signals a need for much substance. With `CCC(c1cccc(S(F)(F)(F)(F)F)c1)N1C[C@H](CC)N(c2nc(=O)n(C)c3ccc(C#N)nc23)C[C@H]1CC` (single isomer, unassigned) [US20250223301, Compound 55], the IC50 in assay [1] came out at 76 nM; in assay [2] it was 12 nM.
